In patent US11337964B2, “Isoindoline derivative, pharmaceutical composition and use thereof” (Kangpu Biopharmaceuticals, Ltd., priority 2017, dated 2022) one finds IC50 data, which are given here for 22 compounds.

Assay type in all cases: biochemical
Details in all cases: FAM-cAMP substrate, 30 minutes at room temperature

For one assay, the target named is T1, PDE4B1 (Homo sapiens, UniProt Q07343).
T1 construct: purchased BPS 60041
The assay is described as follows: PDE4 activity inhibition assay, PDE4B1. The procedure:
(§1) The IC50 value of the inhibitory effect of the compound on PDE4A1A, PDE4B1 and PDE4D3 was tested.
(§2) Positive compound: Trequinsin (Sigma, Cat. No. T2057).
(§3) Equipment: Wallac Victor Multi-label counter (Perkin Elmer).
(§4) I. Preparing 1× reaction liquid and termination liquid;
(§5) II. PDE enzymatic reaction; • 1) The PDE was dissolved in 1× reaction solution to form 2× enzyme solution. • 2) FAM-cAMP was dissolved in 1× reaction solution to form 2× substrate solution. • 3) Echo 550 was used to transfer the corresponding volume of the compound in DMSO solution to the reaction plate. • 4) 2× enzyme solution was added into the corresponding well of the reaction plate and incubated with the compound solution at room temperature for 15 minutes. • 5) 2× substrate solution was added into the corresponding well of the reaction plate to initiate the reaction. • 6) Reaction plate was incubated at room temperature for 30 minutes and terminated by adding termination liquid, then incubated at room temperature for 60 minutes.
(§6) The inhibition rate was calculated by Excel; IC50 was calculated by GraphPad Prism.

The next assay has as its target T2, PDE4A1A (Homo sapiens, UniProt P27815).
T2 construct: purchased BPS 60040
The assay is described as follows: PDE4 activity inhibition assay, PDE4A1A. Here is the method:
as §1, §2, §3, §4, §5, §6

A further assay addresses T3, PDE4D3 (Homo sapiens, UniProt Q08499).
T3 construct: purchased BPS 60046
The assay is described as follows: PDE4 activity inhibition assay, PDE4D3. Here is the method:
as §1, §2, §3, §4, §5, §6

Each structure is given as a SMILES string.

T2 sequence (P27815 1-647 isoform P27815-4): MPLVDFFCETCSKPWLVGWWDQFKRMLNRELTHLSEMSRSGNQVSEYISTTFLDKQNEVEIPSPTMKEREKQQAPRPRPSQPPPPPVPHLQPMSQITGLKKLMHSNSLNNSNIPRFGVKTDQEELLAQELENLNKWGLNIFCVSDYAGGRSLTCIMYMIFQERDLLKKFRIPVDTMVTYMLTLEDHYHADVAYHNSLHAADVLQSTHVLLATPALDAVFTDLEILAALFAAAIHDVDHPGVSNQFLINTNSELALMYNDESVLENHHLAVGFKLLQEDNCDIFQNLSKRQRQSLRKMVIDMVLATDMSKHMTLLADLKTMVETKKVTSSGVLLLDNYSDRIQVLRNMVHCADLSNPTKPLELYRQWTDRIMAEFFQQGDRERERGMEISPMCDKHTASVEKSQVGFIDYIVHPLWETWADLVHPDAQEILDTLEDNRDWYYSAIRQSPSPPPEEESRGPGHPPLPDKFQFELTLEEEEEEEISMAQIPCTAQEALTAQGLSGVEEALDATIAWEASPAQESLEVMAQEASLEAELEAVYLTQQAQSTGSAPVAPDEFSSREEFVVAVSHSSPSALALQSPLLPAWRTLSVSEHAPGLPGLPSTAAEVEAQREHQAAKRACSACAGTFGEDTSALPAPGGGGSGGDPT
T1 sequence (Q07343 whole entry): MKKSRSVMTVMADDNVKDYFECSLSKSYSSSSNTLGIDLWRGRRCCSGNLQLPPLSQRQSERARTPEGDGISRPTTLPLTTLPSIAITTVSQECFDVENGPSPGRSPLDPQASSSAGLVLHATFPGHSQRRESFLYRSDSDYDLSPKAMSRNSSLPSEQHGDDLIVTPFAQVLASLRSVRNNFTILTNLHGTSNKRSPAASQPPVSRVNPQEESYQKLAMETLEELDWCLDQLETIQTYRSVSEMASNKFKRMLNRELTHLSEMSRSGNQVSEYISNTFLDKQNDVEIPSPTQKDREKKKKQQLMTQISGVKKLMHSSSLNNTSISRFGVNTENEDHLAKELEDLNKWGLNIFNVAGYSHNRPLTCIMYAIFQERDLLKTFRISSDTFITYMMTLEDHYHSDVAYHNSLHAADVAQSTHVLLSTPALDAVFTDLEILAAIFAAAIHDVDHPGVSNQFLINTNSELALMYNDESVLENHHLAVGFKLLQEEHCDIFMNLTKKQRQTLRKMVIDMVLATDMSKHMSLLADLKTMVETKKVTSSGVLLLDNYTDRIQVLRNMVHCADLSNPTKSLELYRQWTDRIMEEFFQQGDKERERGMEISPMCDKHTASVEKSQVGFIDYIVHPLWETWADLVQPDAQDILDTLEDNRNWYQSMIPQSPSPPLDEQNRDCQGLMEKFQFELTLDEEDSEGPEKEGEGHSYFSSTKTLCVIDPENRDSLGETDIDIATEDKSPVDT
T3 sequence (Q08499 1-673 isoform Q08499-2): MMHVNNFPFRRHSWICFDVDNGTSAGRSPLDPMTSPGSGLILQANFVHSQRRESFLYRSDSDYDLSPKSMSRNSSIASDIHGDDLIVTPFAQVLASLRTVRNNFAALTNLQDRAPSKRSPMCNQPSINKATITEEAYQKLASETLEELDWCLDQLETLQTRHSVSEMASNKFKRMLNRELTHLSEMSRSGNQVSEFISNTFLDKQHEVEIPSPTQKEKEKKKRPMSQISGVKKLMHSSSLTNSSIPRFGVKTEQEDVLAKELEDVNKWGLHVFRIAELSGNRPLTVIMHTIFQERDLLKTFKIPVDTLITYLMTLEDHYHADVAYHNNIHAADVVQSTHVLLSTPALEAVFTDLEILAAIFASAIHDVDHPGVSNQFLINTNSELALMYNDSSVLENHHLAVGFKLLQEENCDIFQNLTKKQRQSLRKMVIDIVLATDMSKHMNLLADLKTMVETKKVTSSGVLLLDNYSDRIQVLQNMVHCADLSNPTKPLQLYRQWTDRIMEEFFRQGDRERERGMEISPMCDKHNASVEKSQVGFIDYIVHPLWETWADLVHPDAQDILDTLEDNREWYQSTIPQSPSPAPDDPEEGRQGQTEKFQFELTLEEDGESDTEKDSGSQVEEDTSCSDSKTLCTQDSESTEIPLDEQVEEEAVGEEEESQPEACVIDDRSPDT

The term IC50 denotes the point on the concentration scale where inhibition reaches its midpoint. Lower therefore signals greater potency in that assay. Consider `CCOc1cc([C@@H](CS(C)(=O)=O)N2C(=O)c3cc(F)cc(NC(C)=O)c3C2=O)ccc1OC` [Compound 202, (S)—N-(2-(1-(3-ethoxy-4-methoxyphenyl)-2-(methylsulfonyl)ethyl)-6-fluoro-1,3-dioxoisoindolin-4-yl)acetamide], for which the IC50 came out at 11 nM on PDE4B1, 11 nM against PDE4A1A and 5.4 nM on PDE4D3.
`CCOc1nc(C(CS(C)(=O)=O)N2C(=O)c3c(F)ccc(NC(=O)CN(C)C)c3C2=O)ccc1OC` (stereo not drawn) [Compound 751, 2-(dimethylamino)-N-(2-(1-(6-ethoxy-5-methoxypyridin-2-yl)-2-(methylsulfonyl)ethyl)-7-fluoro-1,3-dioxoisoindolin-4-yl)acetamide]: the IC50 came out at 9.9 nM against PDE4B1, 5 nM against PDE4A1A and 3.1 nM at PDE4D3.
Taken in the same sequence, the figures for `CCOc1nc(C(CS(C)(=O)=O)N2C(=O)c3c(F)ccc(NC(=O)CC(C)C)c3C2=O)ccc1OC` (stereo not drawn) [Compound 757, N-(2-(1-(6-ethoxy-5-methoxypyridin-2-yl)-2-(methylsulfonyl)ethyl)-7-fluoro-1,3-dioxoisoindolin-4-yl)-3-methylbutanamide] were 4.5 nM, 2.5 nM and 1.8 nM.
For `CCOc1nc(C(CS(C)(=O)=O)N2C(=O)c3cccc(NS(C)(=O)=O)c3C2=O)ccc1OC` (stereo not drawn) [Compound 737, N-(2-(1-(6-ethoxy-5-methoxypyridin-2-yl)-2-(methylsulfonyl)ethyl)-1,3-dioxoisoindolin-4-yl)methanesulfonamide], the IC50 against PDE4B1 came out at 136 nM; at PDE4A1A, 51.8 nM; against PDE4D3, 35.9 nM.
Regarding `[2H]C([2H])([2H])Oc1ccc([C@@H](CS(C)(=O)=O)N2C(=O)c3c(F)ccc(NC(C)=O)c3C2=O)cc1OC([2H])([2H])[2H]` [Compound 105, (S)—N-(2-(1-(3,4-d6-dimethoxyphenyl)-2-(methylsulfonyl)ethyl)-7-fluoro-1,3-dioxoisoindolin-4-yl)acetamide], the IC50 on PDE4B1 came to 97 nM; on PDE4A1A it was 61 nM; against PDE4D3, 41 nM.
For `[2H]C([2H])([2H])Oc1ccc([C@H](CS(C)(=O)=O)N2C(=O)c3c(F)ccc(NC(C)=O)c3C2=O)cc1OCC` [Compound 104, (R)—N-(2-(1-(3-ethoxy-4-d3-methoxyphenyl)-2-(methylsulfonyl)ethyl)-7-fluoro-1,3-dioxoisoindolin-4-yl)acetamide], the IC50 turned out to be 70 nM against PDE4B1, 53 nM against PDE4A1A and 31 nM against PDE4D3.
The like results for `[2H]C([2H])([2H])Oc1ccc([C@@H](CS(C)(=O)=O)N2C(=O)c3cc(F)cc(NC(C)=O)c3C2=O)nc1OCC` [Compound 724, (S)—N-(2-(1-(6-ethoxy-5-d3-methoxypyridin-2-yl)-2-(methylsulfonyl)ethyl)-6-fluoro-1,3-dioxoisoindolin-4-yl)acetamide] were, in that order, 5.7 nM, 2.3 nM and 3.1 nM.
Taken in the same sequence, the figures for `[2H]C([2H])([2H])Oc1ccc([C@H](CS(C)(=O)=O)N2C(=O)c3c(F)ccc(NC(C)=O)c3C2=O)nc1OCC` [Compound 719, (R)—N-(2-(1-(6-ethoxy-5-d3-methoxypyridin-2-yl)-2-(methylsulfonyl)ethyl)-7-fluoro-1,3-dioxoisoindolin-4-yl)acetamide] were 57.8 nM, 15.3 nM and 15.4 nM.
As for `CCOc1nc([C@@H](CS(C)(=O)=O)N2C(=O)c3cc(C#N)cc(NC(C)=O)c3C2=O)ccc1OC` [Compound 734, (S)—N-(6-cyano-2-(1-(6-ethoxy-5-methoxypyridin-2-yl)-2-(methylsulfonyl)ethyl)-1,3-dioxoisoindolin-4-yl)acetamide], the IC50 at PDE4B1 turned out to be 17.8 nM; at PDE4A1A it was 5.6 nM; at PDE4D3 it was 13 nM.
Taken in the same sequence, the figures for `CCOc1cc([C@@H](CS(C)(=O)=O)N2C(=O)c3ccc(F)c(NC(C)=O)c3C2=O)ccc1OC` [Compound 302, (S)—N-(2-(1-(3-ethoxy-4-methoxyphenyl)-2-(methylsulfonyl)ethyl)-5-fluoro-1,3-dioxoisoindolin-4-yl)acetamide] were 41 nM, 33 nM and 22 nM.
Taken in the same sequence, the figures for `[2H]C([2H])([2H])Oc1ccc([C@H](CS(C)(=O)=O)N2C(=O)c3cc(F)cc(NC(C)=O)c3C2=O)cc1OC([2H])([2H])[2H]` [Compound 206, (R)—N-(2-(1-(3,4-d6-dimethoxyphenyl)-2-(methylsulfonyl)ethyl)-6-fluoro-1,3-dioxoisoindolin-4-yl)acetamide] were 1350 nM, 1460 nM and 997 nM.
Taken in the same sequence, the figures for `CCOc1nc(C(CS(C)(=O)=O)N2C(=O)c3c(F)ccc(NC(=O)COC)c3C2=O)ccc1OC` (stereo not drawn) [Compound 745, N-(2-(1-(6-ethoxy-5-methoxypyridin-2-yl)-2-(methylsulfonyl)ethyl)-7-fluoro-1,3-dioxoisoindolin-4-yl)-2-methoxyacetamide] were 2.6 nM, 1.1 nM and 1.2 nM.
For `CCOc1nc([C@@H](CS(C)(=O)=O)N2C(=O)c3cccc(NC(=O)C4CC4)c3C2=O)ccc1OC` [Compound 770, (S)—N-(2-(1-(6-ethoxy-5-methoxypyridin-2-yl)-2-(methylsulfonyl)ethyl)-1,3-dioxoisoindolin-4-yl)cyclopropanecarboxamide], the IC50 against PDE4B1 came out at 1.8 nM; on PDE4A1A it was 1.6 nM; against PDE4D3 it was 1.5 nM.
Taken in the same sequence, the figures for `CCOc1nc(C(CS(C)(=O)=O)N2C(=O)c3cccc(NC(=O)CC(C)C)c3C2=O)ccc1OC` (stereo not drawn) [Compound 760, N-(2-(1-(6-ethoxy-5-methoxypyridin-2-yl)-2-(methylsulfonyl)ethyl)-1,3-dioxoisoindolin-4-yl)-3-methylbutanamide] were 4.7 nM, 3.1 nM and 1.3 nM.
The like results for `[2H]C([2H])([2H])Oc1ccc([C@H](CS(C)(=O)=O)N2C(=O)c3cc(F)cc(NC(C)=O)c3C2=O)cc1OCC` [Compound 204, (R)—N-(2-(1-(3-ethoxy-4-d3-methoxyphenyl)-2-(methylsulfonyl)ethyl)-6-fluoro-1,3-dioxoisoindolin-4-yl)acetamide] were, in that order, 157 nM, 133 nM and 83 nM.
For the compound `CCOc1cc([C@@H](CS(C)(=O)=O)N2C(=O)c3c(Cl)ccc(NC(C)=O)c3C2=O)ccc1OC` [Compound 111, (S)—N-(7-chloro-2-(1-(3-ethoxy-4-methoxyphenyl)-2-(methylsulfonyl)ethyl)-1,3-dioxoisoindolin-4-yl)acetamide], the values for the IC50 at PDE4B1, against PDE4A1A and against PDE4D3 were 4.3 nM, 1.3 nM and 1.9 nM, respectively.
Turning to `CCOc1nc(C(CS(C)(=O)=O)N2C(=O)c3cccc(NC(=O)CN(C)C)c3C2=O)ccc1OC` (stereo not drawn) [Compound 754, 2-(dimethylamino)-N-(2-(1-(6-ethoxy-5-methoxypyridin-2-yl)-2-(methylsulfonyl)ethyl)-1,3-dioxoisoindolin-4-yl)acetamide], the IC50 is 21.9 nM against PDE4B1, 10.6 nM on PDE4A1A and 8 nM at PDE4D3.
On to `CCOc1cc(C(CS(C)(=O)=O)N2C(=O)c3c(F)ccc(NC(C)=O)c3C2=O)ccc1OC` (stereo not drawn) [Compound 101, N-(2-(1-(3-ethoxy-4-methoxyphenyl)-2-(methylsulfonyl)ethyl)-7-fluoro-1,3-dioxoisoindolin-4-yl)acetamide], for which the IC50 is 27 nM against PDE4B1, 17 nM against PDE4A1A and 12 nM on PDE4D3.
Taken in the same sequence, the figures for `CCOc1cc(C(CS(C)(=O)=O)N2C(=O)c3ccc(F)c(NC(C)=O)c3C2=O)ccc1OC` (stereo not drawn) [Compound 301, N-(2-(1-(3-ethoxy-4-methoxyphenyl)-2-(methylsulfonyl)ethyl)-5-fluoro-1,3-dioxoisoindolin-4-yl)acetamide] were 116 nM, 102 nM and 65 nM.
As to `CCOc1cc(C(CS(C)(=O)=O)N2C(=O)c3cc(F)cc(NC(C)=O)c3C2=O)ccc1OC` (stereo not drawn) [Compound 201, N-(2-(1-(3-ethoxy-4-methoxyphenyl)-2-(methylsulfonyl)ethyl)-6-fluoro-1,3-dioxoisoindolin-4-yl)acetamide], the IC50 worked out at 41 nM against PDE4B1, 39 nM against PDE4A1A and 25 nM at PDE4D3.
The like results for `CCOc1cc(C(CS(C)(=O)=O)N2C(=O)c3cccc(NC(C)=O)c3C2=O)cnc1OC` (stereo not drawn) [Compound 801, N-(2-(1-(5-ethoxy-6-methoxypyridin-3-yl)-2-(methylsulfonyl)ethyl)-1,3-dioxoisoindolin-4-yl)acetamide] were, in that order, 364 nM, 295 nM and 202 nM.
With `CCOc1cc(C(CS(C)(=O)=O)N2C(=O)c3cccc(NC(C)=O)c3C2=O)ncc1OC` (stereo not drawn) [Compound 901, N-(2-(1-(4-ethoxy-5-methoxypyridin-2-yl)-2-(methylsulfonyl)ethyl)-1,3-dioxoisoindolin-4-yl)acetamide], the IC50 came to 484 nM at PDE4B1, 411 nM against PDE4A1A and 248 nM against PDE4D3.
